# Laboratory results: patent US20240180898A1, “USE OF AMINOTHIAZOLE DERIVATIVE IN TREATMENT OF IMMUNE INFLAMMATION” (INNAMUNE PHARMACEUTICAL CO. LTD., priority 2021, published 2024)
# How the values were obtained:
# [1] = tested on: Balb/c mouse psoriasis model; experiment: mouse psoriasis model (imiquimod cream); format: in vivo
# From the text: Preparation and grouping of mouse […] model:
# Model preparation: Male Balb/c mice aged 6-8 weeks were shaved on the back skin and coated with 5% imiquimod (IMQ) cream once a day for 7 consecutive days.
# The experiment was divided into three groups, namely: • Psoriasis control group (without any treatment, psoriasis model group), TJ-M2010-5 systemic medication group (intraperitoneal injection), and TJ-M2010-5 local medication group (ointment group). The specific handling method is as follows: • TJ-M2010-5 systemic medication group: A Balb/c mouse psoriasis model was taken and TJ- M2010-5 was injected intraperitoneally at a dose of 50 mg/kg, once a day, for 2 consecutive weeks. • TJ-M2010-5 local medication group: A Balb/c mouse psoriasis model was taken, and 1% TJ-M2010-5 ointment was applied on the skin, once a day, for 2 consecutive weeks.
# [2] = tested on: skin wound; experiment: full-thickness dorsal skin wound model; format: in vivo, mouse
# From the text: The mice were anesthetized with isoflurane, and 1.5×0.5 cm full-thickness defects were created on their dorsal skin. Animals were divided into three groups: Sham group, Vehicle group and TJ-5 group. After 1 week, mice were sacrificed and wound tissue was harvested for analysis.
compound,measurement,setting,value
"O=C(CCN1CCN(Cc2ccccc2)CC1)Nc1nc(-c2ccccc2)cs1 [INNA1605, 3-(4-benzylpiperazine-1-yl)-N-(4-phenylthiazole-2-yl) propionamide]","therapeutic effect, local medication","[1]; 1% ointment on the skin once a day, 2 weeks","excellent therapeutic effects, with a significant improvement after 7 days and a cure effect achieved after 14 days"
same,infiltration and proliferation of mast cells,[1]; H&E and C-kit (CD117) staining,inhibits the infiltration and proliferation of mast cells
same,abnormally thickened stratum corneum,[1]; after treatment,can basically restore normal tissue structure after treatment
same,inflammatory cells in the skin,[1]; both treatments (systemic and local),significantly reduce inflammatory cells in the skin
same,imbalance of spleen T cells and their subsets,[1]; flow cytometry,correct the imbalance of spleen T cells and their subsets
same,"therapeutic effect, systemic medication","[1]; intraperitoneal 50 mg/kg once a day, 2 weeks","excellent therapeutic effects, with a significant improvement after 7 days and a cure effect achieved after 14 days"
same,excessive keratinization and proliferation of skin keratinocytes,"[1]; mouse, in vivo",inhibit excessive keratinization and proliferation of skin keratinocytes
same,expression of CD80,"[1]; mouse, in vivo",significantly reduces the expression of CD80
same,"expression of intradermal lymphokines (IL-1beta, IL-6, IL-17a, TNF-alpha, MyD88 mRNA, Cxcl2 mRNA)","[1]; mouse, in vivo",inhibits the expression of intradermal lymphokines
same,skin thickness,"[1]; mouse, in vivo",significant thinning of skin thickness
same,splenomegaly,"[1]; mouse, in vivo",can improve splenomegaly
same,MAPK signaling pathway,[1]; psoriasis model skin,inhibits the MAPK signaling pathway
same,synthesis and secretion of inflammatory factors,[1]; skin,inhibiting the synthesis and secretion of inflammatory factors
same,"immune cell infiltration and activation (macrophages, neutrophils, mast cells)",[1]; skin tissue,a reduction in immune cell infiltration and activation
same,skin scar formation,[2]; FIG. 42,prevents skin scar formation
same,"levels of IL-1β, IL-6, TNF-α, G-CSF, Col I, and α-SMA mRNAs in wound tissue","[2]; after 1 week, vs untreated",significantly lower
same,wound area,[2]; vs vehicle,significant decrease in wound area compared to the vehicle
